Columns and labels:
Assay in all cases: normalised viability (% of control), CellTiter-Blue; higher = more viable cells (about 100 = DMSO control)
[1] = test system: MDA-MB-468; details: 100 nM; incubation time: 72 h
Experimental: (§1)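 DSRT, CellTiter-Blue viability, 72 h incubation. Signal is normalised to DMSO and benzethonium chloride controls. Value is the normalised response at dose 3.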

[2] = test system: Hs578T; details: 100 nM; incubation time: 72 h
Experimental: as §1

[3] = test system: BT-474; details: 100 nM; incubation time: 72 h
Experimental: as §1

[4] = test system: DU-4475; details: 10 nM; incubation time: 72 h
Experimental: as §1

[5] = test system: HCC1937; details: 100 nM; incubation time: 72 h
Experimental: as §1

[6] = test system: MDA-MB-436; details: 100 nM; incubation time: 72 h
Experimental: as §1

[7] = test system: CAL-120; details: 100 nM; incubation time: 72 h
Experimental: as §1

[8] = test system: MFM-223; details: 100 nM; incubation time: 72 h
Experimental: as §1

[9] = test system: CAL-85-1; details: 10 nM; incubation time: 72 h
Experimental: as §1

[10] = test system: MDA-MB-453; details: incubation time: 72 h
How it was run: (§2)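 Normalised viability is given for a single listed concentration of the series. In 384-well plates, breast cancer cell lines were incubated 72 h with compound, then read with CellTiter-Blue (2 h, 37 °C) at 560/590 nm. Per-plate scaling set vehicle to 100 and a positive kill control to 0, with Z'-factor quality control.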

[11] = test system: MDA-MB-468; details: incubation time: 72 h
How it was run: as §2

[12] = test system: MDA-MB-231; details: incubation time: 72 h
How it was run: as §2

[13] = test system: Hs578T; details: incubation time: 72 h
How it was run: as §2

[14] = test system: HDQ-P1; details: incubation time: 72 h
How it was run: as §2

[15] = test system: HCC1599; details: incubation time: 72 h
How it was run: as §2

[16] = test system: BT-549; details: incubation time: 72 h
How it was run: as §2

[17] = test system: BT-474; details: incubation time: 72 h
How it was run: as §2

[18] = test system: CAL-51; details: incubation time: 72 h
How it was run: as §2

[19] = test system: DU-4475; details: incubation time: 72 h
How it was run: as §2

[20] = test system: HCC1143; details: incubation time: 72 h
How it was run: as §2

[21] = test system: HCC1937; details: incubation time: 72 h
How it was run: as §2

[22] = test system: MDA-MB-436; details: incubation time: 72 h
How it was run: as §2

[23] = test system: SK-BR-3; details: incubation time: 72 h
How it was run: as §2

[24] = test system: CAL-120; details: incubation time: 72 h
How it was run: as §2

[25] = test system: MFM-223; details: incubation time: 72 h
How it was run: as §2

[26] = test system: CAL-148; details: incubation time: 72 h
How it was run: as §2

[27] = test system: CAL-85-1; details: incubation time: 72 h
How it was run: as §2

CO[C@@H](C(=O)N1Cc2[nH]nc(NC(=O)c3ccc(N4CCN(C)CC4)cc3)c2C1)c1ccccc1 [Danusertib]
Details | normalised viability [%]
[1] | 59.4
[2] | 67.1
[3] | 80.8
[4] | 91
[5] | 99.9
[6] | 95.1
[7] | 64.8
[8] | 44
[9] | 93.6

normalised viability [%]
Details | 3 nM | 10 nM | 30 nM | 100 nM | 1000 nM | 10000 nM
[10] | 101 | – | 62.1 | 47.9 | – | –
[11] | – | 107 | – | – | 36.2 | 48.1
[12] | – | 87.9 | – | – | 56.7 | 19.2
[13] | – | 95.4 | – | – | 59.3 | 23.9
[14] | 89.9 | – | 90.7 | 72.4 | – | –
[15] | – | 98.4 | – | – | 74.7 | 73.1
[16] | – | 97.9 | – | – | 64.3 | 16.2
[17] | – | 105 | – | – | 88.3 | 96.5
[18] | 116 | – | 116 | 74.3 | – | –
[19] | 89.8 | – | 88.2 | 70.6 | – | –
[20] | – | 78.2 | – | – | 61.8 | 31.3
[21] | – | 99.8 | – | – | 41.7 | 41
[22] | – | 89.7 | – | – | 72 | 60.9
[23] | – | 81 | – | – | 73.5 | 77
[24] | – | 80.7 | – | – | 46 | 8.24
[25] | – | 71.3 | – | – | 36.9 | 55.4
[26] | 92.5 | – | 85.5 | 29.7 | – | –
[27] | 85.8 | – | 82.8 | 76.2 | – | –

CS(=O)(=O)N1CCN(Cc2cc3nc(-c4cccc5[nH]ncc45)nc(N4CCOCC4)c3s2)CC1 [GDC-0941]
Details | normalised viability [%]
[1] | 84.2
[2] | 89.1
[3] | 102
[4] | 108
[5] | 99.1
[6] | 91.6
[7] | 75.5
[8] | 82
[9] | 90.7

Details | normalised viability [%]
[10], 3 nM | 109
[10], 30 nM | 85.1
[10], 100 nM | 76.2
[11], 10 nM | 108
[11], 1000 nM | 62.8
[11], 10000 nM | 17
[12], 10 nM | 90.8
[12], 1000 nM | 63.4
[12], 10000 nM | 35.2
[13], 10 nM | 112
[13], 1000 nM | 62.3
[13], 10000 nM | 19.6
[14], 3 nM | 93.6
[14], 30 nM | 93.8
[14], 100 nM | 69.3
[15], 10 nM | 96.8
[15], 1000 nM | 55
[15], 10000 nM | 28
[16], 10 nM | 85.6
[16], 1000 nM | 60.9
[16], 10000 nM | 14.1
[17], 10 nM | 109
[17], 1000 nM | 41.3
[17], 10000 nM | 11
[18], 3 nM | 117
[18], 30 nM | 106
[18], 100 nM | 89.4
[19], 3 nM | 107
[19], 30 nM | 98.8
[19], 100 nM | 95.5
[20], 10 nM | 73.2
[20], 1000 nM | 52.1
[20], 10000 nM | 21.2
[21], 10 nM | 114
[21], 1000 nM | 60.8
[21], 10000 nM | 25.5
[22], 10 nM | 97.7
[22], 1000 nM | 68.1
[22], 10000 nM | 22.9
[23], 10 nM | 92.3
[23], 1000 nM | 24.1
[23], 10000 nM | 8.8
[24], 10 nM | 89.6
[24], 1000 nM | 53.7
[24], 10000 nM | 20.8
[25], 10 nM | 95.7
[25], 1000 nM | 43.5
[25], 10000 nM | 13.1
[26], 3 nM | 82.4
[26], 30 nM | 85.8
[26], 100 nM | 83.2
[27], 30 nM | 77.7
[27], 100 nM | 83.5

O=C(Nc1c[nH]nc1-c1nc2ccc(CN3CCOCC3)cc2[nH]1)NC1CC1 [AT9283]
Details | normalised viability [%]
[1] | 29.4
[2] | 64.4
[3] | 112
[4] | 97.5
[5] | 60.9
[6] | 99
[7] | 57.3
[8] | 64
[9] | 85.7

normalised viability [%]
Details | 3 nM | 10 nM | 30 nM | 100 nM | 1000 nM | 10000 nM
[10] | 99.2 | – | 60.1 | 54.7 | – | –
[11] | – | 108 | – | – | 43.1 | 6.32
[12] | – | 87.5 | – | – | 43.3 | 5.14
[13] | – | 124 | – | – | 33.9 | 1.79
[14] | 113 | – | 97.3 | 81.2 | – | –
[15] | – | 102 | – | – | 72.5 | 11.9
[16] | – | 95.8 | – | – | 46.7 | 4.31
[17] | – | 111 | – | – | 78.8 | 7.58
[18] | 107 | – | 97.8 | 56.3 | – | –
[19] | 91.2 | – | 94.1 | 43.9 | – | –
[20] | – | 77.8 | – | – | 51.8 | 13.9
[21] | – | 106 | – | – | 43.4 | 15.5
[22] | – | 97.4 | – | – | 64.2 | 29.6
[23] | – | 93.9 | – | – | 40.3 | 6.9
[24] | – | 84.9 | – | – | 22.1 | 6.61
[25] | – | 93.4 | – | – | 57.4 | 19
[26] | 80 | – | 69 | 31.8 | – | –
[27] | 89.8 | – | 72.8 | 78.6 | – | –

Reference: the supplement of paper PMC4862054
